2 compounds from patent publication US12145943B2, “Solid forms of 3-(5-Fluorobenzofuran-3-yl)-4-(5-methyl-5H-[1,3]dioxolo[4,5-f]indol-7-yl)pyrrole-2,5-dione” (Actuate Therapeutics Inc., priority 2017, dated 2024) can be followed below.

In brackets after ≈: the same amount, converted by molar mass.

Holding throughout (assay type): physicochemical
The nature of series [1]: Aqueous solubility study (water or buffers, HPLC of filtrate, XRPD of remaining solids). The settings on record: for solubility: shaken 200 rpm 24 h. The method, then:
The solubility of 9-ING-41 polymorphic forms in water or buffers were determined using HPLC under the following conditions: • Instrument: Agilent 1260 Infinity Series • Diluent: Acetonitrile • Flow rate: 1.5 mL/min • Mobile phase: A: 0.05% TFA in water • B: 0.05% TFA in Acetonitrile • Injection volume: 1 μL • Column: XDB-C18, 4.6*50 mm, 1.8 μm • Column Temperature: 40° C. • Detection: 220 nm • Run Time: 8 minutes (2 minutes delay for next injection) • Gradient (T/B %): 0.0/70, 6.0/100, 8.0/100 10-30 mg of 9-ING-41 Form I was added to 2 mL of water or a buffer solution buffered at pH=1.2, 4.5, or 6.8. The samples were shaken at 200 rpm in a shaker for 24 h. The sample vials were visually examined to ensure saturation. 1 mL of each suspension was filtered at 24 hours through a 0.22 µm nylon syringe filter into another clean clear glass vial. The filtrate was analyzed using HPLC (accurately dilute if necessary) and the remaining solids were analyzed using XRPD.

Series [2] can be described thus: Solubility in 30% acetonitrile in water (HPLC of filtrate, XRPD of remaining solids). The procedure: The solubility of 9-ING-41 polymorphic forms in 30% Acetonitrile in water was determined using HPLC under the following conditions: • Instrument: Agilent 1260 Infinity Series • Diluent: 30% acetonitrile aqueous solution • Flow rate: 1.5 mL/min • Mobile phase: A: 0.05% TFA in water • B: 0.05% TFA in acetonitrile • Injection volume: […] • Column: XDB-C18, 4.6*50 mm, 1.8 μm • Column Temperature: 40° C. • Detection: 220 nm • Run Time: 8 minutes (2 minutes delay for next injection) • Gradient (T/B %): 0.0/70, 6.0/100, 8.0/100
About 5 mg of 9-ING-41 Form I was added into 2 mL of 30% acetonitrile/70% water (vol/vol). The sample was shaken at 200 rpm in a shaker for 24 h. The vial was visually examined to ensure saturation. 1 mL of the suspension was filtered through a 0.22 µm nylon syringe filter into another clean clear glass vial at 2 hours and at 24 hours. The filtrates were analyzed using HPLC (accurately dilute if necessary) and the remaining solids were analyzed using XRPD.

Series [3] in a line: Dynamic vapor sorption (DVS) analysis. The conditions noted are these: 80% relative humidity, 25.0±1.0° C. The method, then: DVS analyses were conducted on an IGAsorp (HidenIsochema Ltd.). For an isotherm test, the chamber temperature was maintained by a water bath at constant 25.0±1.0° C.
A short description of series [4]: Mechanical and pressure effects on crystalline form (XRPD). The procedure: XRPD analyses were performed using an X-ray diffractometer (Bruker D8 advance) equipped with LynxEye detector. The instrument parameters were listed below. • Scan: 3° (2θ) to 40° (2θ) • Increment: 0.02° (2θ) • Scan speed: 0.3 sec/step • Voltage: 40 KV • Current: 40 mA • Rotation: On • Sample hold: Zero-background sample holder TGA Analysis 9.90 mg of 9-ING-41 Form I was weighed into mortar and ground for 5 min. […] 9-ING-41 Form I was pressed into two tablets. The weight of tablets was 38.9 mg and 36.2 mg, respectively.

For the compound `Cn1cc(C2=C(c3coc4ccc(F)cc34)C(=O)NC2=O)c2cc3c(cc21)OCO3` [9-ING-41 Form I, 3-(5-fluoro-1-benzofuran-3-yl)-4-[5-methyl-2H,5H-[1,3]dioxolo[4,5-f]indol-7-yl]-2,5-dihydro-1H-pyrrole-2,5-dione], the “crystalline form of remaining solids (XRPD)” value was “no change in crystalline form” in series [1] (after 24 h in water or pH 1.2, 4.5, 6.8 buffer) and “no change in crystalline form” in series [2] (after shaking in 30% acetonitrile/70% water). Also, the solubility result in series [1] (pH 1.2 buffer), in series [1] (pH 4.5 buffer), in series [1] (pH 6.8 buffer) and in series [1] (water) was “poor” throughout. For the same compound, in series [1] (water or pH 1.2, 4.5, 6.8 buffer, filtrate at 24 hours), the “9-ING-41 in the filtrates by HPLC” value is reported as “could not be detected”. Besides, the solubility – broadly, how much of the substance goes into solution per volume – at 24 h in series [2] (aqueous with cosolvent or surfactant or cyclodextrin, thermodynamic from solid, 30% acetonitrile/70% water (vol/vol), after 24 hours, read-out: 9-ING-41 in filtrate (solubility) by HPLC) turned out to be 48 µg/mL (≈ 119 µM). Also, the solubility at 2 h in series [2] (aqueous with cosolvent or surfactant or cyclodextrin, thermodynamic from solid, 30% acetonitrile/70% water (vol/vol), after two hours, read-out: 9-ING-41 in filtrate (solubility) by HPLC) worked out at 46 µg/mL (≈ 114 µM). Further, the “weight gain (DVS)” value in series [3] is listed as “about 0.23 % by weight”. The “crystalline form after grinding (XRPD)” value in series [4] (ground in mortar for 5 min) is listed as “had not changed”. For the same compound, in series [4] (pressed into tablets, then ground into powder), the “crystalline form after pressing into tablets (XRPD)” value is reported as “had not changed”.
For `Cn1cc(C2=C(c3coc4ccc(F)cc34)C(=O)NC2=O)c2cc3c(cc21)OCO3` [Amorphous 9-ING-41, 3-(5-fluorobenzofuran-3-yl)-4-(5-methyl-5H-[1,3]dioxolo[4,5-f]indol-7-yl)pyrrole-2,5-dione], the concentration in solution in series [2] (aqueous with cosolvent or surfactant or cyclodextrin, thermodynamic from solid, 30% acetonitrile/70% water (vol/vol), after 30 minutes) (solubility at 30 min) was 57 µg/mL (≈ 141 µM).
